Test [1] addresses T1, TRIM56 E3 ubiquitin-protein ligase TRIM56 (Homo sapiens, UniProt Q9BRZ2).
T1 construct: Cells were resuspended in cold PBS on ice and sonicated with a probe sonicator to achieve lysis; endogenous in cells
T1 sequence (Q9BRZ2 1-755): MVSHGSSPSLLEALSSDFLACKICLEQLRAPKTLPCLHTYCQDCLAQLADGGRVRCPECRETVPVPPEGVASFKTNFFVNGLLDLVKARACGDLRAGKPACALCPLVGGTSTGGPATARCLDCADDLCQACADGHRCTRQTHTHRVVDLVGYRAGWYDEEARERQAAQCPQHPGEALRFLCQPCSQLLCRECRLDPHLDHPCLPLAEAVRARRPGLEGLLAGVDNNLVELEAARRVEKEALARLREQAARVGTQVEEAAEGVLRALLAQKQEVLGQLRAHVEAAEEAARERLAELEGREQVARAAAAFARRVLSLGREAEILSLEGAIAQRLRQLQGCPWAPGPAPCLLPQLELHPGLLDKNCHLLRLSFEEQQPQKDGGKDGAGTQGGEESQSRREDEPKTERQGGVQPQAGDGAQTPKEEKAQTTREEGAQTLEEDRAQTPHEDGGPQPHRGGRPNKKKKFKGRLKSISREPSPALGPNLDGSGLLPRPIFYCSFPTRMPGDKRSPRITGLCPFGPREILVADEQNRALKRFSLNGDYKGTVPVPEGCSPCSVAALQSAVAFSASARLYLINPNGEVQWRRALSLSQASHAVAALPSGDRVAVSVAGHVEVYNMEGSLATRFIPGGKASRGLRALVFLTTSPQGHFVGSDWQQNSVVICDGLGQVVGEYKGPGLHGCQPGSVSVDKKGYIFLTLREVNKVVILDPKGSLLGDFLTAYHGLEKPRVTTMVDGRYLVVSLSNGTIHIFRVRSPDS
Nature of the test: Cysteine liganding, probe competition. Type of test: binding. The essentials: (§1)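 Lysates from probe-sonicated cells in PBS (5 mg/ml proteome) were exposed to compound for 1 hr at 25° C, then labelled with desthiobiotin iodoacetamide probe (10 mM stock) for 1 hr at 25° C. Probe-tagged peptides were streptavidin-enriched after trypsin digestion.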

The target of test [2] is T2, EEF1A1 Elongation factor 1-alpha 1 (Homo sapiens, UniProt P68104).
T2 construct: 200 μL of lysate containing 5 mg/ml proteome was treated with 2 μL of 100× compound stock; endogenous in cells
T2 sequence (P68104 1-462): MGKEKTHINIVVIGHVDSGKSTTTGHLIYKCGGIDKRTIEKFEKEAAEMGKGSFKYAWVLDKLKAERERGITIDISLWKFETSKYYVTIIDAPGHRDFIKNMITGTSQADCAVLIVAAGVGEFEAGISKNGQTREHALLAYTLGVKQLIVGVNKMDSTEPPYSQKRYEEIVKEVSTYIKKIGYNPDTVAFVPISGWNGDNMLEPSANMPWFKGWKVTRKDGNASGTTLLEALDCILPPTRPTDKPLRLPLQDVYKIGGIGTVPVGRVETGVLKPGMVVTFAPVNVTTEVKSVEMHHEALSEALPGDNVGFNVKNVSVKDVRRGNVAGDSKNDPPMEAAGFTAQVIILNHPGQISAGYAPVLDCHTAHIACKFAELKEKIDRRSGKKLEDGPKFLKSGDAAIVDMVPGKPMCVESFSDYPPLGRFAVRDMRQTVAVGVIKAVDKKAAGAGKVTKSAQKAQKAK
In words: Cysteine liganding, probe competition. The test is classed as binding. The essentials:
as §1

Setting [3] is: EEF1A1 Res# 363, uniprot P68104.
Setting [4] is: EEF1A1 Res# 370, uniprot P68104.

SMILES strings stand for the structures.

As for `COc1ccc2c(c1)CCCN2C(=O)CCl` [KB02], the Liganded entry in test [1] (TRIM56 Res# 338, uniprot Q9BRZ2) was “YES”; in test [2] (setting [3]), “YES”; in test [2] (setting [4]), “YES”.
Take `O=C(CCl)Nc1cc(C(F)(F)F)cc(C(F)(F)F)c1` [KBO3]: the “KB03_500 uM_percent_inhibition” value in test [1] (500 uM, UniProt Q9BRZ2) was found to be 93%. The Liganded entry in test [1] (TRIM56 Res# 36, uniprot Q9BRZ2) was “YES”; in test [2] (setting [3]) it was “YES”; in test [2] (setting [4]), “YES”. Further, the “500 Max” value in test [1] (uniprot Q9BRZ2) came out at 78.3. Further, the 500 ave in test [1] (uniprot Q9BRZ2) worked out at 78.3.

These data come from patent US20200239530A1, “COMPOUNDS AND METHODS OF MODULATING PROTEIN DEGRADATION” (Vividion Therapeutics, Inc., priority 2017, published 2020).
